In patent US5464819A, “Physiologically active peptide having immunoregulatory activities” (priority 1990, dated 1995):
Ends that are not written are not given here.

Columns and labels:
Toxoplasma strain RH [1] = test: Activity to inhibit multiplication of Toxoplasma (percentage of cells containing Toxoplasma, Toxo-GIF activity, cytotoxicity) in mouse peritoneal macrophages; format: cell-based, Toxoplasma gondii
Method: (§1) In the present invention, the activity to inhibit multiplication of Toxoplasma is evaluated by two characteristics, i.e. "percentage of cells containing Toxoplasma" and "Toxoplasma growth inhibitory factor activity (hereinafter referred to as "Toxo-GIF activity")". These characteristics are measured according to the methods described in Nagasawa, H., et.al., Jpn. J. Vet. Sci., vol. 43, pages 307-319, 1981 and Sakurai, H., et.al., Jpn. J. Trop. Med. Hyg., vol. 10, pages 183-195, 1982.
An adult BALB/c female mouse is intraperitoneally injected with 1 ml of a sterilized saline containing 0.2% of glycogen, and, 5 days later, the peritoneal cavity of the mouse is washed with cold Hank's balanced salt solution (hereinafter referred to as "HBSS"), thereby taking up peritoneal exudate cells. These cells are washed by centrifugation at 250×G for 5 min twice, and suspended in Tc199 culture medium containing 10% of heat-inactivated calf serum (hereinafter referred to as "10%-HICS-Tc199 culture medium", see Igaku No Ayumi (Progress in Medicine), 62, No. 6, published on Aug. 5, 1967) in a concentration of 1×10^6 cells/mi. This cell suspension is portionwise poured, 1 ml each, into culture wells (Multidish-tray, FB-16-24-TC, manufactured and sold by Limblo Chemical Co., U.S.A.), which are covered by a circular cover glass having a diameter of 15 mm, and cultured in a 5% CO2 -incubator. In order to remove contaminating erythrocytes and lymphocytes, each of the culture wells is gently rinsed with HBSS three times at intervals of 2 hours, and then cultivated overnight in the CO2 -incubator to thereby form a mouse macrophage monolayer on the cover glass.
Each of the above-obtained monolayers is again rinsed with 10%-HICS-Tc199 culture medium, and inoculated with 1×10^5 tachyzoites of Toxoplasma strain RH per 1×10^6 mouse macrophages or canine monocytes so that the macrophages are infected thereby. Free Toxoplasma organisms having not penetrated into the cells are removed by washing with HBSS one hour after the inoculation.
(§2) A 10%-HICS-Tc199 culture medium containing a peptide sample is applied to the cover glass in an amount of 1 ml per 1×10^6 cells for both of the mouse macrophages and the canine monocytes, followed by cultivation for 48 hours, and then stained with May-Grunwald-Giemsa to thereby count the number of Toxoplasma organisms in the cells. Within a certain visual field on the cover glass, 100 cells are checked to count the number of cells which contain no Toxoplasma, the number of cells which contain one to five Toxoplasm organisms and the number of cells which contain 6 or more Toxoplasma organisms, and the count results are expressed by percentage. Similar checking and counting are performed within four other visual fields on the cover glass. From the data obtained on all of the five visual fields, an average value and a standard deviation are calculated to determine the percentage of cells containing Toxoplasma.
As a peptide sample, use is made of one obtained by dissolving a powdery peptide in 3 ml of 10%-HICS-Tc199 culture medium and then filtering and sterilizing the resultant solution through a membrane filter having a pore size of 0.46 μm. […]
The thus obtained crude Obioactin is fractionated by DEAE-5PW column (manufactured and sold by Tosoh Co., Japan) having an inside diameter of 21.5 mm and a length of 15 cm by NaCl concentration gradient ion exchange chromatography in which a concentration gradient of NaCl from 0M to 1M is made in 0.02M ammonium acetate as a basic solution. Each of the fractions is lyophilized, desalted by gel filtration through Sephadex G-15 (trade name of a gel manufactured and sold by Pharmacia Fine Chemicals Co., Sweden) and lyophilized again.

Toxoplasma strain RH [2] = test: Activity to inhibit multiplication of Toxoplasma in canine monocytes; format: cell-based, Toxoplasma gondii; conditions: Obio-2 0.05 mg/ml, canine monocyte cell
Method: as §1
On the other hand, in the preparation of canine monocytes, 5 ml of blood is collected from cervical vein as a peripheral blood, and 0.05% of heparin is added. This blood is subjected to fractionation according to the Conray 400-Ficoll method (see Tsuji, H., Men-eki Jikken Sosaho (Procedure for Immunological Tests), 4th ed., Immunocells I-4, pages 443-446, published by Maeda Printing Co., Ltd., in 1979) to thereby obtain a mononuclear cell fraction. The obtained mononuclear cell fraction is subjected to centrifugation (800×G, 5 min., 4° C.) with HBSS and then with 10%-HICS-Tc199 culture medium, and suspended in 10%-HICS-Tc199 culture medium in a concentration of about 1×10^6 cells/mi. The resultant cell suspension is portionwise poured, 1 ml each, into the above-mentioned culture wells, which are covered by a circular cover glass having a diameter of 15 mm, and cultured in a 5% CO2 -incubator. The culturing is effected for 12 hours, and each of the culture wells is gently rinsed with HBSS three times, followed by cultivation overnight in the CO2 -incubator, to thereby form a canine monocyte monolayer on the cover glass.
Each of the above-obtained monolayers is again rinsed with 10%-HICS-Tc199 culture medium, and inoculated with 1×10^5 tachyzoites of Toxoplasma strain RH per 1×10^6 mouse macrophages or canine monocytes so that the macrophages are infected thereby. […]
A 10%-HICS-Tc199 culture medium containing a peptide sample is applied to the cover glass in an amount of 1 ml per 1×10^6 cells for both of the mouse macrophages and the canine monocytes, followed by cultivation for 48 hours, and then stained with May-Grunwald-Giemsa to thereby count the number of Toxoplasma organisms in the cells. […] From the data obtained on all of the five visual fields, an average value and a standard deviation are calculated to determine the percentage of cells containing Toxoplasma.
The Toxo-GIF activity, which is another activity useful for evaluating the activity to inhibit multiplication of Toxoplasma, is defined as a proportion of decrease of Toxoplasma (Tp)-containing cells (in percentage) attributed to the addition of a peptide sample, expressed by percentage, and calculated according to the following formula: Toxo-GIF Activity (%)= [formula] […]
(§3) The effect of the No. 5 peptide (Obio-2) is evaluated.

Toxoplasma strain RH [3] = test: Activity to inhibit multiplication of Toxoplasma in human myocardial cells (Giardi Heart cell); format: cell-based, Toxoplasma gondii; conditions: Obio-2 0.05 mg/ml
Method: as §1
(§4) The cells are suspended in MEM-M culture medium containing 10% of heat-inactivated calf serum at a concentration of 1×10^6 cells/mi. This cell suspension is portionwise poured, 1 ml each, into culture wells (multidish-tray, FB-16-24-TC, manufactured and sold by Limblo Chemical Co., U.S.A.), which are covered by a circular cover glass having a diameter of 15 mm, and cultured in a 5% CO2 -incubator overnight to thereby obtain a cell monolayer (a human myocardial cell monolayer and a human cerebral cell monolayer) on the cover glass.
(§5) The obtained cell monolayer is rinsed with MEM-M culture medium, and inoculated with 1×10^5 tachyzoites of Toxoplasma strain RH per 1×10^6 cells with respect to each of the human myocardial cells and the human brain cells. Free Toxoplasma organisms having not penetrated into the cells are removed by washing with HBSS one hour after the inoculation.
(§6) An MEM-M culture medium containing a peptide sample is applied to the cover glass in an amount of 1 ml per 1×10^6 cells, followed by cultivation for 48 hours, and then stained with May-Grunwald-Giemsa to thereby count the number of Toxoplasma organisms in the cells. The percentage of cells containing Toxoplasma organisms is determined in the same manner as described above for mouse macrophages.
(§7) The Toxo-GIF activity, which is another activity useful for evaluating the activity to inhibit multiplication of Toxoplasma, is defined as a proportion of decrease of Toxoplasma (Tp)-containing cells (in percentage) attributed to the addition of a peptide sample, expressed by percentage, and calculated according to the following formula: Toxo-GIF Activity (%)= [formula]
as §3

Toxoplasma strain RH [4] = test: Activity to inhibit multiplication of Toxoplasma in human cerebral cells (Flow 3000 cell); format: cell-based, Toxoplasma gondii; conditions: Obio-2 0.05 mg/ml
Method: as §1, §4, §5, §6, §7, §3

Toxoplasma = test: Toxo-GIF activity of synthetic peptides used singly and in combination (host cells not stated); format: cell-based, Toxoplasma gondii; conditions: total mg/ml: Obio-1 0.49, Obio-2 0.50, Obio-3 0.45, Obio-1+Obio-2 0.49, Obio-1+Obio-3 0.46, Obio-2+Obio-3 0.47
Method: as §1, §2, §7

[5] = system: Methylcholanthrene induced tumor (MC tumor); test: Effect of peptide injection on tumor multiplication in Methylcholanthrene induced tumor (MC tumor)-bearing mouse; format: in vivo; conditions: 28 days after inoculation with MC tumor cells; 30 μg/mouse intramuscularly every week; control 432±10.5
Method: (§8) Methylcholanthrene induced tumor cells excised from an MC induced tumor lump of a BALB/c mouse having, injected thereto, 0.5 mg of 20-Methylcholanthrene (manufactured and sold by Wako Pure Chemical Industries Ltd.), are suspended in RPMI-1640 culture medium, thereby obtaining a cell suspension of 2×10^7 cells/ml. 0.025 ml (5×10^5 MC tumor cells/mouse) of the cell suspension is intramuscularly injected under the skin on the back of a 6-week-old male mouse to inoculate the mouse with MC-tumor cells, thereby obtaining a tumor-bearing mouse.
(§9) Each of Obio-2 and Obio-3 is intramuscularly injected in an amount of 30 μg/mouse under the skin on the back of the mouse every week after the injection of the above MC tumor cell suspension to evaluate the inhibitory effect thereof on the multiplication of the tumor. Five tumor-bearing mice are employed for each test, and an average is taken.

[6] = system: mononuclear cells in spleen; test: Number of mononuclear cells in spleen and histopathology of MC tumor-bearing mouse; format: in vivo; conditions: for Bleeding colonies at the tumor tissue portions (histopathological findings): MC tumor-bearing mice, large bleeding colonies in uninjected mice; for Spleen mononuclear cell count in tumor-bearing mice relative to normal mice: spleen mononuclear cells, saline 0.10; for Spleen mononuclear cell count in tumor-bearing mice relative to normal mice / Number of mononuclear cells per mouse: MC tumor-bearing mouse; for Number of mononuclear cells per mouse: spleen, 30 μg once a week, normal mouse 13.0 × 10^7, saline 1.3 × 10^7
Method: as §8, §9
On the other hand, the number of mononuclear cells in the spleen of tumor-bearing mice injected with Obio-2 and Obio-3 experience only a slight decrease, and retains as large a number as 65 to 70% of that of normal mice. In the histopathological findings of these spleens, no significant change is observed in the spleen follicles of both the tumor-bearing mouse groups injected with Obio-2 and Obio-3 and the tumor-bearing mouse group injected with none of them. However, in the mouse groups injected with Obio-2 and Obio-3, small mononuclear cells (small lymphocytes) and large monocytes in the spleen red marrow conspicuously gather in the mallow, especially around the vessels, whereas the control mouse group not injected with the peptide has only small lymphocytes in the marrow.

[7] = Obio-2 0.05 mg/ml, mouse macrophage
[8] = synthetic peptide 0.7 mM, mouse peritoneal macrophages

Row | Substance | Percentage of cells containing Toxoplasma (Tp): 0 Tp (Toxoplasma strain RH [1]; [8]) | Percentage of cells containing Toxoplasma (Tp): 1-5 Tp (Toxoplasma strain RH [1]; [8]) | Percentage of cells containing Toxoplasma (Tp): ≥6 Tp/cell (Toxoplasma strain RH [1]; [8]) | Toxo-GIF (Toxoplasma strain RH [1]; [8]) | Percentage of cells containing Toxoplasma (Tp): 0 Tp (Toxoplasma) | Percentage of cells containing Toxoplasma (Tp): 1-5 Tp (Toxoplasma) | Percentage of cells containing Toxoplasma (Tp): ≥6 Tp/cell (Toxoplasma) | Toxo-GIF (Toxoplasma) | Average tumor area [5] | Bleeding colonies at the tumor tissue portions (histopathological findings) [6] | Spleen mononuclear cell count in tumor-bearing mice relative to normal mice [6] | Number of mononuclear cells per mouse [6] | further results
1 | AEEPVV [peptide No. 5] | 64.4 ± 9.3% | 32.8 ± 8.8% | 2.8 ± 1.1% | 61.6% | 69.6 ± 11.5% | 24.0 ± 9.1% | 6.4 ± 2.7% | 63.1% | 208±40.1 mm^2 | no apparent bleeding colonies | 0.64 | 8.3 × 10^7 | Concentration at which Toxo-GIF activity becomes appreciable / sufficient activity is detected (Toxoplasma strain RH [1]): 0.25 mg/mL; Percentage of cells containing Toxoplasma (Tp): 0 Tp (Toxoplasma strain RH [1]; [7]): 88.4 ± 7.6%; Percentage of cells containing Toxoplasma (Tp): 1-5 Tp (Toxoplasma strain RH [1]; [7]): 7.0 ± 4.5%; Percentage of cells containing Toxoplasma (Tp): ≥6 Tp/cell (Toxoplasma strain RH [1]; [7]): 4.6 ± 4.2%; Toxo-GIF (Toxoplasma strain RH [1]; [7]): 50.4%; Percentage of cells containing Toxoplasma (Tp): 0 Tp (Toxoplasma strain RH [2]): 80.5 ± 6.4%; Percentage of cells containing Toxoplasma (Tp): 1-5 Tp (Toxoplasma strain RH [2]): 12.8 ± 5.4%; Percentage of cells containing Toxoplasma (Tp): ≥6 Tp/cell (Toxoplasma strain RH [2]): 6.7 ± 3.3%; Toxo-GIF (Toxoplasma strain RH [2]): 67.4%; Percentage of cells containing Toxoplasma (Tp): 0 Tp (Toxoplasma strain RH [3]): 80.7 ± 6.1%; Percentage of cells containing Toxoplasma (Tp): 1-5 Tp (Toxoplasma strain RH [3]): 10.6 ± 3.4%; Percentage of cells containing Toxoplasma (Tp): ≥6 Tp/cell (Toxoplasma strain RH [3]): 8.7 ± 2.1%; Toxo-GIF (Toxoplasma strain RH [3]): 57.7%; Percentage of cells containing Toxoplasma (Tp): 0 Tp (Toxoplasma strain RH [4]): 75.4 ± 7.4%; Percentage of cells containing Toxoplasma (Tp): 1-5 Tp (Toxoplasma strain RH [4]): 12.6 ± 6.8%; Percentage of cells containing Toxoplasma (Tp): ≥6 Tp/cell (Toxoplasma strain RH [4]): 2.1 ± 1.9%; Toxo-GIF (Toxoplasma strain RH [4]): 78.2%
2 | GAEEPVV [peptide No. 6] | 55.2 ± 6.2% | 36.2 ± 8.6% | 8.6 ± 4.4% | 51.7% | 59.7 ± 15.8% | 29.5 ± 11.0% | 10.8 ± 7.1% | 51.1% | 219±40.1 mm^2 | no apparent bleeding colonies | 0.72 | 9.1 × 10^7 | –
